The assay has as its target SARS2 coronavirus 3CL protease (Severe acute respiratory syndrome coronavirus 2, UniProt P0DTD1). In words: biochemical. The note with it: 5 nM enzyme, 30 min pre-incubation with compound, 15 μM peptide substrate, 4 h at room temperature; read-out: FRET Potency (nM); IC50 values in the SARS2 3CLPro FRET assay.
Regarding `CNC(=O)C(=O)[C@H](C[C@@H]1C[C@@H](C)NC1=O)NC(=O)c1cc(Cl)ccc1NC(=O)C(C)C(F)(F)F` (stereo partly drawn) [Example 24, 5-chloro-N-[(1S)-3-(methylamino)-1-[[(3S,5R)-5-methyl-2-oxo-pyrrolidin-3-yl]methyl]-2,3-dioxo-propyl]-2-[(3,3,3-trifluoro-2-methyl-propanoyl)amino]benzamide], the IC50 was 18.6 nM.

Turning to `CNC(=O)C(=O)[C@H](C[C@@H]1C[C@@H](C)NC1=O)NC(=O)c1cc(Cl)ccc1NC(=O)OC1CC1(F)F` (stereo partly drawn) [Example 171, (2,2-difluorocyclopropyl) N-[4-chloro-2-[(1S)-3-(methylamino)-1-[[(3S,5R)-5-methyl-2-oxo-pyrrolidin-3-yl]methyl]-2,3-dioxo-propyl]carbamoyl]phenyl] carbamate], the IC50 is 3.2 nM.

On to `C[C@@H]1C[C@@H](C[C@H](NC(=O)c2cc(Cl)c(F)cc2NC(=O)CCC(F)(F)F)C(=O)C(=O)NC2CC2)C(=O)N1` [Example 53, 5-chloro-N-[(1S)-3-(cyclopropylamino)-1-[[(3S,5R)-5-methyl-2-oxo-pyrrolidin-3-yl]methyl]-2,3-dioxo-propyl]-4-fluoro-2-(4,4,4-trifluorobutanoylamino) benzamide], for which the IC50 came out at 8.3 nM.

Regarding `O=C(NC1CC1)C(=O)[C@H](C[C@@H]1CCNC1=O)NC(=O)c1cc(Cl)ccc1NC(=O)C1(CC(F)(F)F)CC1` [Example 36, 5-chloro-N-[(1S)-3-(cyclopropylamino)-2,3-dioxo-1-[[(3S)-2-oxopyrrolidin-3-yl]methyl]propyl]-2-[[1-(2,2,2-trifluoroethyl)cyclopropane-carbonyl]amino]benzamide], the IC50 amounted to 10.7 nM.

In the case of `O=C(CCC(F)(F)F)Nc1cc(F)c(Cl)cc1C(=O)N[C@@H](C[C@@H]1CCNC1=O)C(=O)C(=O)NC1CC1` [Example 56, 5-chloro-N-[(1S)-3-(cyclopropylamino)-2,3-dioxo-1-[[(3S)-2-oxopyrrolidin-3-yl]methyl]propyl]-4-fluoro-2-(4,4,4-trifluorobutanoylamino) benzamide], the IC50 is 8.1 nM.

As to `CNC(=O)C(=O)[C@H](C[C@@H]1C[C@@H](C)NC1=O)NC(=O)c1cc(Cl)ccc1NC(=O)C(C)C(F)(F)F` (stereo partly drawn) [Example 19, 5-chloro-N-[(1S)-3-(methylamino)-1-[[(3S,5R)-5-methyl-2-oxo-pyrrolidin-3-yl]methyl]-2,3-dioxo-propyl]-2-[(3,3,3-trifluoro-2-methyl-propanoyl)amino]benzamide], the IC50 is 28.2 nM.

For `CNC(=O)C(=O)[C@H](C[C@@H]1C[C@@H](C)NC1=O)NC(=O)c1cc(F)c(F)cc1NC(=O)OC1CC1` [Example 141, cyclopropyl N-[4,5-difluoro-2-[[(1S)-3-(methylamino)-1-[[(3S,5R)-5-methyl-2-oxo-pyrrolidin-3-yl]methyl]-2,3-dioxo-propyl]carbamoyl]phenyl] carbamate], the IC50 is 19.8 nM.

On to `C[C@@H]1C[C@@H](C[C@H](NC(=O)c2cc(Cl)ccc2NC(=O)C2CC2C(F)(F)F)C(=O)C(=O)NC2CC2)C(=O)N1` (stereo partly drawn) [Example 84, 5-chloro-N-[(1S)-3-(cyclopropylamino)-1-[[(3S,5R)-5-methyl-2-oxo-pyrrolidin-3-yl]methyl]-2,3-dioxo-propyl]-2-[[2-(trifluoromethyl)cyclopropane-carbonyl]amino]benzamide], for which the IC50 turned out to be 20.6 nM.

Consider `CNC(=O)C(=O)[C@H](C[C@@H]1C[C@@H](C)NC1=O)NC(=O)c1cc(C(F)(F)F)ccc1NC(=O)OC1CC1` [Example 169, cyclopropyl N-[2-[(1S)-3-(methylamino)-1-[[(3S,5R)-5-methyl-2-oxo-pyrrolidin-3-yl]methyl]-2,3-dioxo-propyl]carbamoyl]-4-(trifluoromethyl)phenyl] carbamate], for which the IC50 worked out at 75.3 nM.

As for `COC(=O)Nc1ccc(Cl)cc1C(=O)N[C@@H](C[C@@H]1C[C@@H](C)NC1=O)C(=O)C(=O)NC1CC1` [Example 101, methyl N-[4-chloro-2-[(1S)-3-(cyclopropylamino)-1-[[(3S,5R)-5-methyl-2-oxo-pyrrolidin-3-yl]methyl]-2,3-dioxo-propyl]carbamoyl]phenyl] carbamate], the IC50 was determined as 7.8 nM.

As to `CNC(=O)C(=O)[C@H](C[C@@H]1C[C@@H](C)NC1=O)NC(=O)c1cc(C#N)cnc1NC(=O)c1cc(C(F)(F)F)cc(C(F)(F)F)c1` [Example 4, 2-(3,5-bis(trifluoromethyl)benzamido)-5-cyano-N—((S)-1-((3S,5R)-5-methyl-2-oxopyrrolidin-3-yl)-4-(methylamino)-3,4-dioxobutan-2-yl)nicotinamide], the IC50 worked out at 11.5 nM.

As for `CNC(=O)C(=O)[C@H](C[C@@H]1C[C@@H](C)NC1=O)NC(=O)c1cc(Cl)ccc1NC(=O)OC1CCC(F)(F)C1` (stereo partly drawn) [Example 201, (3,3-difluorocyclopentyl) N-[4-chloro-2-[(1S)-3-(methylamino)-1-[[(3S,5R)-5-methyl-2-oxo-pyrrolidin-3-yl]methyl]-2,3-dioxo-propyl]carbamoyl]phenyl] carbamate], the IC50 is 7 nM.

As for `CNC(=O)C(=O)[C@H](C[C@@H]1C[C@@H](C)NC1=O)NC(=O)c1cc(Cl)ccc1NC(=O)OCC1CC1(F)F` (stereo partly drawn) [Example 187, (2,2-difluorocyclopropyl)methyl N-[4-chloro-2-[(1S)-3-(methylamino)-1-[[(3S,5R)-5-methyl-2-oxo-pyrrolidin-3-yl]methyl]-2,3-dioxo-propyl]carbamoyl]phenyl] carbamate], the IC50 was 2.5 nM.

For the molecule `CNC(=O)C(=O)[C@H](C[C@@H]1C[C@@H](C)NC1=O)NC(=O)c1cc(Cl)ccc1NC(=O)C(C)C` [Example 125, 5-chloro-N-[(1S)-3-(methylamino)-1-[[(3S,5R)-5-methyl-2-oxo-pyrrolidin-3-yl]methyl]-2,3-dioxo-propyl]-2-(2-methylpropanoylamino) benzamide], the IC50 is 5.6 nM.

Regarding `CNC(=O)C(=O)[C@H](C[C@@H]1C[C@@H](C)NC1=O)NC(=O)c1cc(Cl)ccc1NC(=O)OC(C)C` [Example 31, isopropyl N-[4-chloro-2-[[(1S)-3-(methylamino)-1-[[(3S,5R)-5-methyl-2-oxo-pyrrolidin-3-yl]methyl]-2,3-dioxo-propyl]carbamoyl]phenyl] carbamate], the IC50 came to 12.4 nM.

For `C[C@@H]1C[C@@H](C[C@H](NC(=O)c2cc(Cl)ccc2NC(=O)c2ccn(CC(F)(F)F)n2)C(=O)C(=O)NC2CC2)C(=O)N1` [Example 100, N-[4-chloro-2-[[(1S)-3-(cyclopropylamino)-1-[[(3S,5R)-5-methyl-2-oxo-pyrrolidin-3-yl]methyl]-2,3-dioxo-propyl]carbamoyl]phenyl]-1-(2,2,2-trifluoroethyl)pyrazole-3-carboxamide], the IC50 turned out to be 5.9 nM.

Turning to `C[C@@H]1C[C@@H](C[C@H](NC(=O)c2cc(Cl)cnc2NC(=O)C23CC(F)(C2)C3)C(=O)C(=O)NC2CC2)C(=O)N1` [Example 27, 5-chloro-N-[(1S)-3-(cyclopropylamino)-1-[[(3S,5R)-5-methyl-2-oxo-pyrrolidin-3-yl]methyl]-2,3-dioxo-propyl]-2-[(3-fluorobicyclo[1.1.1]pentane-1-carbonyl)amino]pyridine-3-carboxamide], the IC50 turned out to be 13.6 nM.

The values are drawn from patent publication US20240228535A1 (priority 2022, published 2024).
